Test results reported in patent US12324855B2, “Method of safe administration of phosphorylated Tau peptide vaccine” (AC Immune SA, priority 2019, dated 2025).
Square brackets hold non-standard residues; d marks the D form. Ends that are not written are not given here. pS = N[C@@H](COP(=O)(O)O)C(=O)O

System: CD4+ T-cell response in PBMCs from 51 human donors
Test: EpiScreen time course T-cell proliferation and IL-2 ELISPOT assays (Example 6)
Type: cell-based
Conditions: 5 μM peptide, 51 donors; for donors responding, taking into account borderline responses and donors responding in only one of the two assays: SI≥1.90 borderline; for donors responding in both IL-2 ELISPOT and proliferation assays: SI≥2.00
Protocol: Two 16-mer peptides, Tau 393-408[pS396/pS404] (T3.5 having the amino acid sequence of SEQ ID NO:2) and Tau393-408 (T3.6 having the amino acid sequence of SEQ ID NO:4) were tested in EpiScreen™ time course T-cell assays for the capacity to induce CD4^+ T-cell response in 51 human donors.
EpiScreen™ Time Course T-cell Proliferation Assays and IL-2 ELISPOT Assays
PBMCs from 51 human donors were stimulated with either peptide at a final concentration of 5 μM. For each donor, a reproducibility control (cells incubated with 100 μg/mL KLH), a benchmark clinical control (cells incubated with 0.3 μM humanized A33) and a culture medium only well were also included. Proliferation and IL-2 production were evaluated after different time points.
For proliferation assays and IL-2 ELISPOT assays, an empirical threshold of a Stimulation Index (SI) equal to or greater than two (SI≥2.00) has been previously established whereby samples inducing responses above this threshold are deemed positive whereas SI≥1.90 were considered as borderline responders.
Previous EpiScreen™ time course T-cell assays with a range of biologics have shown a clear correlation between the percentage of donor T-cell responses in the EpiScreen™ assay and the level of immunogenicity observed in the clinic. In general, protein therapeutics that induce >10% positive responses in the EpiScreen™ assay are associated with a significant risk of immunogenicity in the clinic.

Substance	donors responding, taking into account borderline responses and donors responding in only one of the two assays [%]	donors responding in both IL-2 ELISPOT and proliferation assays [%]
VYKSPVVSGDTSPRHL (tau peptide) [Tau 393-408, 16-mer non-phosphorylated Tau peptide]	8	4
VYK[pS]PVVSGDT[pS]PRHL [Tau 393-408 [pS396/pS404]]	8	2
